Results as given in PMC10766536 (The Journal of Antibiotics, 2023).
Read-outs that look alike come from different tables or passages of the source.

What was measured:
[1] = rat, s9
CYP 3A4 [2] = tested on: CYP 3A4
[3] = biological target: T1, MDCK-MDR1: overexpression of Pgp (Homo sapiens, UniProt P08183)
[4] = S9 microsome stability, CD-1 mouse; conditions: text statement for rodent (mouse and rat) S9
[5] = biological target: T1, MDCK-MDR1: overexpression of Pgp; assay: MDCK-MDR1 permeability and efflux
[6] = tested on: S. aureus MRSA strain NRS384; assay: S. aureus IV advanced disseminated infection mouse model, kidney burden; type: in vivo, Balb/c mice; conditions: 0.01–0.25 mg/kg sc single dose in combination with vancomycin, NRS384
Procedure: (§1) S. aureus MSRA strain NRS384 or N315 (BEI Resources), where indicated, was grown overnight in TSB and sub-cultured to mid-logarithmic phase. […] From 1 to 3 days post-infection, indicated mice were injected subcutaneously with 110 mg/kg vancomycin twice daily where indicated. […] Mice were monitored for weight loss and body conditioning score throughout the infection. At 4 days post-infection, mice were euthanized, and the S. aureus kidney burden was quantified by tissue homogenization followed by enumeration of cfu through serial dilution in PBS and plating onto TSA plates. Data points represent the kidney burden from individual mice tested. Statistical analysis was conducted with GraphPad Prism 9, Version 9.4.1.

[7] = tested on: S. aureus MRSA strain N315; assay: as above; type: in vivo, Balb/c mice
Procedure: as §1

CYP 3A4 [8] = biological target: CYP 3A4 (Homo sapiens, UniProt P08684); conditions: read-out: CYP inhibition IC50, ND = Not Detected
[9] = tested on: Salmonella typhimurium ATCC 14028; assay: S. typhimurium broth killing (growth inhibition) assay; conditions: Salmonella typhimurium ATCC 14028, TSB, 24 h
Description: (§3) To test the potency of rifamycin analogs of the disclosure in vitro, a broth growth inhibition assay was developed.

CYP 1A2 = CYP 1A2 (Homo sapiens, UniProt P05177); conditions: read-out: CYP inhibition IC50; CYP 1A2, substrate Phenacetin; ND = Not Detected
[10] = tested on: Salmonella typhimurium AR-0031; assay: S. typhimurium broth killing (growth inhibition) assay; conditions: Salmonella typhimurium AR-0031, TSB, 24 h
Description: as §3

CYP 2C19 = CYP 2C19 (Homo sapiens, UniProt P33261)
CYP 2C8 = CYP 2C8 (Homo sapiens, UniProt P10632); assay: CYP inhibition; conditions: read-out: CYP inhibition IC50; CYP 2C8, substrate Amodiaquine; ND = Not Detected
[11] = Toxicokinetics in 2-week IV rat toxicity study; type: in vivo
Procedure: (§2) A subset from each dose group was maintained for 14 days after the last dose to evaluate delayed toxicity and/or recovery. All animals were observed twice daily for mortality and signs of pain or distress. Detailed clinical observations, body weight measurements and food consumption were conducted weekly; post dose observations (30 min post dose) were conducted daily or as required. Clinical pathology evaluations (hematology, coagulation parameters, and serum chemistry) were performed using samples collected on the day of scheduled sacrifice (main and recovery). At the end of the 14-day dosing period, and at the end of the 14-day recovery period, necropsies were performed on all animals, selected organs were weighed, and tissues were examined macroscopically and microscopically. Toxicokinetic parameters were evaluated on Day 1 and 14.

[12] = mouse, s9
[13] = tested on: Caco-2: endogenous transporters; assay: Caco-2 permeability
Sprague Dawley rats = assay: 2-week IV once-a-day toxicity study with 2-week recovery in Sprague Dawley rats
Procedure: as §2

[14] = Compound stability in CYP induction assay
CYP 2B6 [15] = biological target: CYP 2B6 (Homo sapiens, UniProt P20813)
S. aureus NRS384 = assay: S. aureus broth killing (growth inhibition) assay; conditions: S. aureus NRS384, TSB, 24 h, OD600
Description: as §3

[16] = tested on: Caco-2: endogenous transporters
CYP 2D6 = CYP 2D6 (Homo sapiens, UniProt P10635); assay: CYP inhibition; conditions: read-out: CYP inhibition IC50; CYP 2D6, substrate Dextromethorphan; ND = Not Detected
CYP 2B6 [17] = tested on: CYP 2B6
[18] = combination with vancomycin, end of treatment
[19] = end of treatment period, compound alone
[20] = males, combination with vancomycin (1 + 110 mg/kg/day), end of treatment, considered vancomycin-related

T1 sequence (P08183 whole entry): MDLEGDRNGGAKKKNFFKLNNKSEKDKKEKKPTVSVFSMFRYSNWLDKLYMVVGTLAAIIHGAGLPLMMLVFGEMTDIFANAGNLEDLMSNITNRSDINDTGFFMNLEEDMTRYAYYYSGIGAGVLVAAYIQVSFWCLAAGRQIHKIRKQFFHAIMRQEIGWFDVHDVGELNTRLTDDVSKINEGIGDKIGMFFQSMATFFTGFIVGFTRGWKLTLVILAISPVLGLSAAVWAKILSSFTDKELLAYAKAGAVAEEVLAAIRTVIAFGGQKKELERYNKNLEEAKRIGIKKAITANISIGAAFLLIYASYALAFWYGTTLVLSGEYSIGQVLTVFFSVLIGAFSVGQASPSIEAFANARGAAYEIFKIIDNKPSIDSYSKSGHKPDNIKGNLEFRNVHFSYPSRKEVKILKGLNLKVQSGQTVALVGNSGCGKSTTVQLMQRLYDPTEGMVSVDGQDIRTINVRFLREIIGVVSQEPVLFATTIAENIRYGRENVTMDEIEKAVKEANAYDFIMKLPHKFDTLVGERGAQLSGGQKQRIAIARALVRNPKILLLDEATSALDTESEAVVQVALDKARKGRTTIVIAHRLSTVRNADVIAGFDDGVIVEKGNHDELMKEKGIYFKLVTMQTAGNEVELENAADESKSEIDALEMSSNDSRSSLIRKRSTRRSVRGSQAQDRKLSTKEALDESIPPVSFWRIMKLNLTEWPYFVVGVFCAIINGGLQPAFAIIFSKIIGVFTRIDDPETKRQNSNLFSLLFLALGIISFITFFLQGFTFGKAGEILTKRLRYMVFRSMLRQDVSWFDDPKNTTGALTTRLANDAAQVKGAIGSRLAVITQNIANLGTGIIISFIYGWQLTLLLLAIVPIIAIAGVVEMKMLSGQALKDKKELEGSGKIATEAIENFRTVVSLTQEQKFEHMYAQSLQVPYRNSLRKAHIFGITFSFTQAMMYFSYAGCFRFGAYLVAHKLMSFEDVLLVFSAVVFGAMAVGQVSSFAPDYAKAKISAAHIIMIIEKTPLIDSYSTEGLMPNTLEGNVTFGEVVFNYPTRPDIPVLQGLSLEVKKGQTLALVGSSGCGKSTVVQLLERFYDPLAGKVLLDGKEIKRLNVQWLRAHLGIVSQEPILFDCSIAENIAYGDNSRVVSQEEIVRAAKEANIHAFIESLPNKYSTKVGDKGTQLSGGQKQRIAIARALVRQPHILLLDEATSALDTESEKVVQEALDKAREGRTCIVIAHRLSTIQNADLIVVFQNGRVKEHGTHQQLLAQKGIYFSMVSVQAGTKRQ
Chain of CYP 3A4 (Homo sapiens, UniProt P08684) (P08684 whole entry): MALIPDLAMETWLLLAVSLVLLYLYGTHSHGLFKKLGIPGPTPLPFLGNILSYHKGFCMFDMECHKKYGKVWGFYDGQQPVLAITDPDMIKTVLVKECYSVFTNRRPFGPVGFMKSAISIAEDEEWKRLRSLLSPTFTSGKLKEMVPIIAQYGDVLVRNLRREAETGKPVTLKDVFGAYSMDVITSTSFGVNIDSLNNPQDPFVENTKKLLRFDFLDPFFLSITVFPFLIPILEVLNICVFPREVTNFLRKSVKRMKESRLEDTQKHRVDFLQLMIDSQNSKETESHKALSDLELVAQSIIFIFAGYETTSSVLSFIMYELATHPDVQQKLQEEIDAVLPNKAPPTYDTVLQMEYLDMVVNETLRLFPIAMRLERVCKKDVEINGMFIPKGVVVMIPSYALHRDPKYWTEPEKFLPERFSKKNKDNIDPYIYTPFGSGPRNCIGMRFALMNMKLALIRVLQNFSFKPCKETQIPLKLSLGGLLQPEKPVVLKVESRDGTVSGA
Chain of CYP 2B6 (Homo sapiens, UniProt P20813) (P20813 whole entry): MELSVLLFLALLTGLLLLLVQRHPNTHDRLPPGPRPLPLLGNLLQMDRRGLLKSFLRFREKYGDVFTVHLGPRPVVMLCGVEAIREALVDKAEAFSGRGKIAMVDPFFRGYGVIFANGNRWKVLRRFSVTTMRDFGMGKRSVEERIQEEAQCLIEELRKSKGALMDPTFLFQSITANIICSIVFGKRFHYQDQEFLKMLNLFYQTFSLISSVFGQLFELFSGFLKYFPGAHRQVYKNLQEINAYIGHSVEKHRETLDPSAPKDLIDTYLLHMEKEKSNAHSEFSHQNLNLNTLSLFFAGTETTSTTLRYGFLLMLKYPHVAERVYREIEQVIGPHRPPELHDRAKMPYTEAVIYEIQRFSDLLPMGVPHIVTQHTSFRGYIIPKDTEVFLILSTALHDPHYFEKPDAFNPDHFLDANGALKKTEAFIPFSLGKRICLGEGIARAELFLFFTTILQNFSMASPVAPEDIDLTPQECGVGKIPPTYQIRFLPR
Chain of CYP 2C8 (P10632 whole entry): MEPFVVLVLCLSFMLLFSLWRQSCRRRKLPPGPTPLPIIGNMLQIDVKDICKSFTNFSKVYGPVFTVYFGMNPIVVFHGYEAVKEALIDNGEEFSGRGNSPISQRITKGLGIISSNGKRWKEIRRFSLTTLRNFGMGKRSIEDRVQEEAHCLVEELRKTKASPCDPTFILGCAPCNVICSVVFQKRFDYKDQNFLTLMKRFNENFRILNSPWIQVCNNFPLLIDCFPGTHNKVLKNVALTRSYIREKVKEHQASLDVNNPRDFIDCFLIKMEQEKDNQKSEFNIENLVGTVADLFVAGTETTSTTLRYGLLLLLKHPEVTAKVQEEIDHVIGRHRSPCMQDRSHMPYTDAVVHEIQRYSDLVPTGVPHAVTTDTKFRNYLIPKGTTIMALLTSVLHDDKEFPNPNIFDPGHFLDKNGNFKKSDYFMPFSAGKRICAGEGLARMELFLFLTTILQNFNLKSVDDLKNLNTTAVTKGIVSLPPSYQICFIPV
Chain of CYP 2D6 (P10635 whole entry): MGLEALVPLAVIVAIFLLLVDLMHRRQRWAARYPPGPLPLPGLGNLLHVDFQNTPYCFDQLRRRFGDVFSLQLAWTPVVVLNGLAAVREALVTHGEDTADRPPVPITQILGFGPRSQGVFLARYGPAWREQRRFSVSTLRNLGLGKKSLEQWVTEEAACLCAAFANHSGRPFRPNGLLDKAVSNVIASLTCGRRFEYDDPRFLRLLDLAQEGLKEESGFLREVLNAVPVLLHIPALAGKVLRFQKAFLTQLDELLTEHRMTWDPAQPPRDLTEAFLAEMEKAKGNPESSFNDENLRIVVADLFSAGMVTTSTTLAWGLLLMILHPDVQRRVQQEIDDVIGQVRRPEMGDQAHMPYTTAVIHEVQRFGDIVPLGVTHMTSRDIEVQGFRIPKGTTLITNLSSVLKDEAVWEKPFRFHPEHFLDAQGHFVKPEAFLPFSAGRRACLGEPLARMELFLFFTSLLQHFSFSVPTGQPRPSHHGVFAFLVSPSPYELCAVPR
Chain of CYP 2C19 (P33261 whole entry): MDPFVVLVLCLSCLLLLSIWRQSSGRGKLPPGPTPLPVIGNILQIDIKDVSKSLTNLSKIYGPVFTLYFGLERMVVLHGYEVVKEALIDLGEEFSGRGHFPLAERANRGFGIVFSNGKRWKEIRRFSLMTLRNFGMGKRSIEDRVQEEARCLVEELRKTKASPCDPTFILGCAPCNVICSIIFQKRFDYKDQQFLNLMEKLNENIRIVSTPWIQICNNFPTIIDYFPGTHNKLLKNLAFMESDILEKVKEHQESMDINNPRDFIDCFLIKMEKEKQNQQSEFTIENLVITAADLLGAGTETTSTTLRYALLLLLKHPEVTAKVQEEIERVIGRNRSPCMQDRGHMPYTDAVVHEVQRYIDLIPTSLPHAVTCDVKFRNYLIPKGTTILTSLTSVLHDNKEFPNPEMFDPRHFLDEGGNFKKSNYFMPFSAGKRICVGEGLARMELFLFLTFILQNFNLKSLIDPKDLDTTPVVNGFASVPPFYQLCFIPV
Chain of CYP 1A2 (P05177 whole entry): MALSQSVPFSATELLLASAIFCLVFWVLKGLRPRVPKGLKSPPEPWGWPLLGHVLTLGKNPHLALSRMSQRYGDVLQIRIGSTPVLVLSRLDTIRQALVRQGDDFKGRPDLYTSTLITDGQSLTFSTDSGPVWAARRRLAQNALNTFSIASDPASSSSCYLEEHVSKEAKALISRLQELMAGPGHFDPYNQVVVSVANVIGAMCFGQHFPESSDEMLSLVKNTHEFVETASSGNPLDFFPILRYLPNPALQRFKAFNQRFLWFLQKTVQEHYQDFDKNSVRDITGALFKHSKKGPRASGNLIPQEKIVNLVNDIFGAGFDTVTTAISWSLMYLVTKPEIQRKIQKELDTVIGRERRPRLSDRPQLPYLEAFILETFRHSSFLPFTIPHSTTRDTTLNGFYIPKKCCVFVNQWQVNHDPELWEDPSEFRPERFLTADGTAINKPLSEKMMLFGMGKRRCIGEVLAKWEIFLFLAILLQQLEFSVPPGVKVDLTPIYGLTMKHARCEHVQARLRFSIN

Compound: COC1C=COC2(C)Oc3c(C)c(O)c4c(=O)c(c5oc6cc(OCCN(C)C)ccc6nc-5c4c3C2=O)NC(=O)C(C)=CC=CC(C)C(O)C(C)C(O)C(C)C(OC(C)=O)C1C (stereo not shown) [Compound 4]
- T1/2 [1]: >2 h
- Fold Induction (Enzyme Activity) (CYP 3A4 [2]): 0.128
- Mean A-B % Recovery [3]: 89.10%
- Mean B-A % Recovery [3]: 54.80%
- Mean Papp A-B [3]: 1.38 10^−6 cm/s
- Mean Papp B-A [3]: 18.9 10^−6 cm/s
- half-lives, rodent S9 microsomal stability [4]: greater than 120 min
- Mean (B-A/A-B) Efflux Ratio [5]: 13.7
- S. aureus kidney burden [6]: further reduced kidney burden
- bacterial load (kidney) ([7]; 0.01 mg/kg in combination with vancomycin): below the limit of detection
- S. aureus kidney burden ([7]; 0.01–0.75 mg/kg in combination with vancomycin): to or near the limit of detection
- IC50 (CYP 3A4 [8]; CYP 3A4, substrate Midazolam): 8.05 µM
- IC50 (CYP 3A4 [8]; CYP 3A4, substrate Testosterone): 5.66 µM
- Broth MIC [9]: 4 µM
- IC50 (CYP 1A2): 10.9 µM
- Broth MIC [10]: 1 µM
- IC50 (CYP 2C19): 9.99 µM
- IC50 (CYP 2C8): 6.76 µM
- accumulation following 14 daily doses ([11]; rat IV QD): No apparent accumulation
- sex difference in exposure ([11]; rat IV QD 1 mg/kg/day, males vs females): No sex difference
- dose proportionality of Cmax and AUCtau ([11]; rat IV QD 0.1-10 mg/kg/day): approximately dose-proportional
- AUC or Cmax when coadministered with vancomycin ([11]; rat IV, 1 + 110 mg/kg/day, compound 5: except Day 1, slightly greater Cmax and AUC): not impacted
- T1/2 [12]: >2 h
- Mean (B-A/A-B) Efflux Ratio [13]: 3.97
- albumin concentration (Sprague Dawley rats; [18]): minimal decrease
- glucose concentration (Sprague Dawley rats; [18]): minimal increase
- urea nitrogen (Sprague Dawley rats; [18]): minimal increase
- dose with apparent minimal increase in alkaline phosphatase in males (Sprague Dawley rats; end of recovery period): ≥ 1 mg/kg/day
- dose with increase in glucose (Sprague Dawley rats; end of recovery period): ≥ 0.1 mg/kg/day
- dose with minimal to mild decreases in globulin in males (Sprague Dawley rats; end of recovery period): ≥ 0.1 mg/kg/day
- dose with minimal increases in phosphorus (Sprague Dawley rats; end of treatment period): ≥ 0.1 mg/kg/day
- dose with minimal increases in reticulocyte counts (Sprague Dawley rats; end of treatment period): ≥ 0.1 mg/kg/day
- dose with minimal decrease in albumin concentration (Sprague Dawley rats; [19]): 10 mg/kg/day
- dose with minimal increase in glucose concentration (Sprague Dawley rats; [19]): 1 mg/kg/day
- neutrophils counts (Sprague Dawley rats; [20]): mild decreases
- platelet counts (Sprague Dawley rats; [20]): minimal increase
- red cell mass parameters (red blood cells, hemoglobin, hematocrit) (Sprague Dawley rats; [20]): minimal decreases
- calcium (Sprague Dawley rats; males, combination with vancomycin, after 14-day recovery): minimal decrease
- globulin (Sprague Dawley rats; males, combination with vancomycin, end of recovery period): minimal to mild decreases
- fibrinogen (Sprague Dawley rats; males, combination with vancomycin, end of treatment, attributed to vancomycin): minimal increases
- tolerability (Sprague Dawley rats; rat, IV QD 14 days, 0.1-10 mg/kg/day): well-tolerated
- body weight, body weight gains, food consumption changes (Sprague Dawley rats; rat, IV QD 14 days, alone or in combination with vancomycin): no body weight, body weight gains, or food consumption changes
- no-observed-adverse-effect level (NOAEL) (Sprague Dawley rats; rat, IV QD 14 days, highest dose administered): 10 mg/kg/day
- Average % Stability [14]: 75.8%
- IC50 (CYP 2B6 [15]): 11.6 µM
- Broth MIC (S. aureus NRS384): 0.00391 µM
- Mean A-B % Recovery [16]: 52.70%
- Mean B-A % Recovery [16]: 66.30%
- Mean Papp A-B [16]: 2.59 10^−6 cm/s
- Mean Papp B-A [16]: 10.3 10^−6 cm/s
- IC50 (CYP 2D6): 11.7 µM
- Fold Induction (Enzyme Activity) (CYP 2B6 [17]): 0.0131
